From patent publication US20250042941A1, “PEPTIDE HAVING PHYSIOLOGICAL ACTIVITY AND USE THEREOF” (CAREGEN CO., LTD., priority 2021, published 2025) come the findings set out here.

Series [1] has as its system mouse RAW264.7 cell line. Put plainly: Osteoclast differentiation induced by RANKL, TRAP staining. The conditions noted are these: peptide 10 to 150 μg/ml with RANKL, 4 days, FIG. 10A. In kind it is cell-based. Here is the method: After removing the medium, the cells were fixed for 30 seconds and washed twice with double distilled water. Staining was performed with 100 μl of a TRAP staining solution (acid phosphatase kit, Sigma aldrich) at 37° C. for 30 minutes. Thereafter, the staining solution was removed, washing with double distilled water three times and drying were performed, and then observation was performed with a microscope.

Another series concerns human AD-MSC cells. Put plainly: ECM gene expression in mesenchymal stem cells (RT-PCR). In kind it is cell-based. To be noted: peptide 50 and 100 μg/ml, days 3, 7, 11, FIGS. 7A to 7C. The procedure:
Adipose-derived mesenchymal stem cells were treated with the peptide containing the amino acid sequence of SEQ ID NO: 1, and then it was confirmed whether there was an increase in expression of cartilage oligomeric matrix protein (COMP), collagen type 11A (COL 11A), PCP, and ACAN (aggrecan) genes associated with the ECM production.
After removing the medium on days 3, 7, and 11, cells were harvested and RNA was isolated. After synthesizing cDNA using a cDNA synthesis kit (Intron, Korea), PCR was performed for COMP, COL 11A, PCP, ACAN, and GAPDH genes using PCR pre-mix (Intron, Korea).

The test system of a further series is COX2 protein. Put plainly: COX2 protein in macrophages induced by inflammation with TNFα (Western blot). In kind it is cell-based, mouse. To be noted: RAW264.7, peptide 100 and 150 μg/ml 1 hour, then 20 nM TNF-α 24 hours, FIG. 9. Here is the method: In addition to the results of Experimental Example 7, in order to further confirm the anti-inflammatory effect of the treatment with the peptide containing the amino acid sequence of SEQ ID NO: 1 of the present invention, mouse RAW264. 7 macrophage cell line was treated with TNFα to induce inflammation, and the expression level of COX2 protein, which is an inflammation-inducing marker, was confirmed.
To this end, mouse RAW264.7 cell line was distributed in a 6-well plate at a density of 2×10^5 cells/well and cultured in α-MEM medium containing 10% FBS for 24 hours. The medium was replaced with serum-free α-MEM medium (1% penicillin) and then fasted for 6 hours. […] After 1 hour, the cells were treated with 20 nM TNF-α and incubated for 24 hours. Thereafter, the cells were harvested, a cell lysate was prepared, and then Western blot was performed using antibodies against the COX2 protein (Cell Signaling Technology, USA).
On the technique in general: A western blot detects proteins with antibodies after separation by electrophoresis.

Series [2] relates to mouse RAW264.7 macrophage cell line. The experiment in a line: Actin ring formation in osteoclasts induced by RANKL (immunofluorescence). The format is cell-based. The conditions noted are these: peptide 50 and 100 μg/ml with RANKL, 4 days, FIG. 12. Here is the method:
In addition to the results of Experimental Examples 9 and 10, in order to further confirm the effect of inhibiting osteoclast differentiation according to the treatment with the peptide containing the amino acid sequence of SEQ ID NO: 1 of the present invention, mouse RAW264. […] After removing the medium, the cells were washed three times with cooled PBS and fixed with 4% paraformaldehyde for 30 minutes. The cells were washed three times with cooled PBS for 5 minutes, and then the cells were permeabilized with 0.3% Triton X-100 in PBS for 30 minutes. The cells were washed three times with cooled PBS for 5 minutes, and the cells were blocked with filtered 3% BSA in PBS for 1 hour with stirring. Incubation was performed with primary antibodies (Rhodamin (Red) [Invitrogen™]) diluted to 1:100 with a blocking medium with stirring for 2 hours. The cells were blocked from light and washed three times with PBS for 15 minutes with stirring, DAPI mounting medium (VECTASHIELD® MOUNTING MEDIUM with DAPI) was added, and then each well was covered with a cover slip and observed with a microscope.

For series [3], the system named is mouse RAW264.7 cell line. Put plainly: Cytotoxicity / cell proliferation, CCK-8 assay. The format is cell-based. The conditions noted are these: peptide 10, 30, 50, 100, 150 μg/ml, 3 days. The procedure: The effect of the peptide of the present invention on cell proliferation was confirmed using CCK-8 assay. CCK-8 reagent is reduced by cellular dehydrogenase to produce a colored product, and the proliferation of cells may be confirmed through a difference in absorbance using this.
After removing the medium, CCK-8 solution (Dojindo, CCK-8 kit) was diluted 10 times in the culture medium and treated at 100 μl each. During incubation at 37° C., absorbance at a wavelength of 450 nm was measured using a microplate reader at 30-minute intervals.
Background: Tetrazolium assays rely on reduction of a dye to a coloured formazan, in cell work by metabolically active cells.

For series [4], the system named is mouse RAW264.7 macrophage cell line. The experiment in a line: Inflammatory cytokine mRNA in macrophages induced by inflammation with TNFα (RT-PCR). In kind it is cell-based. The conditions noted are these: peptide 100 and 150 μg/ml 1 hour, then 20 nM TNF-α 24 hours, FIG. 8. Here is the method: In addition to the cartilage regenerative activity confirmed in Experimental Examples 1 to 6, in order to confirm the anti-inflammatory effect according to the treatment with the peptide containing the amino acid sequence of SEQ ID NO: 1 of the present invention, mouse RAW264.7 macrophage cell line was treated with TNF to induce inflammation, and the expression levels of TNFα and IL-18, which are inflammatory cytokines, and Cox2 gene, which is an inflammation-inducing marker, were confirmed. The cytokine TNFα was treated to induce inflammation. Since TNFα corresponds to a signal transduction protein related to an inflammatory response, IL-18 corresponds to a cytokine that promotes an inflammatory response, and Cox2 is an inflammation-related protein, a degree of the inflammatory response may be confirmed by measuring the expression levels of TNFα, Cox2, and […] genes. To this end, mouse RAW264.7 cell line was distributed in a 6-well plate at a density of 2×10^5 cells/well and cultured in α-MEM medium containing 10% FBS for 24 hours. The medium was replaced with serum-free α-MEM medium (1% penicillin) and then fasted for 6 hours. […] After 1 hour, the cells were treated with 20 nM TNF-α and incubated for 24 hours. Thereafter, the cells were harvested and RNA was isolated. […]

Series [5] concerns human C28/12 chondrocyte cell line. Put plainly: ECM production in three-dimensional culture of chondrocytes (alginate beads, alcian blue or toluidine blue). The conditions noted are these: peptide 100 and 150 μg/ml, day 9, FIG. 4. In kind it is cell-based. Here is the method:
Human-derived chondrocytes were treated with the peptide containing the amino acid sequence of SEQ ID NO: 1 in three-dimensional culture, and then it was confirmed whether there was an increase in the formation of glycosaminoglycan, which is an ECM component.
To this end, 3×10^6 cells of human C28/12 chondrocyte cell line were suspended in 1 ml of an alginate solution (1.25% alginate, 20 mM HEPES, 150 mM Nacl, pH 7.4), and the alginate solution containing the cells were added dropwise to a polymerization solution (100 mM CaCl2), 10 mM HEPES, pH 7.4), thereby preparing beads. The prepared beads were washed twice with DPBS, and then the beads were distributed in a conical tube containing DMEM medium (5% FBS). […] After removing the medium on day 9, 3.7% formaldehyde was added and fixed for 6 hours. Dehydration was performed using a tissue processor (EtOH 70%, 80%, 90%, 100% I, II, xylene I, II in this order for 30 minutes each), and a paraffin block was prepared by embedding. The paraffin block was sectioned on a glass slide to a thickness of […] and then completely dried for 24 hours or longer. The sections were hydrated (Xylene I, II, EtOH 100% I, II, 90%, 80%, 70% in this order for 3 minutes each) and washed three times by being immersed in running water for 10 seconds. […]

For series [6] the test system is unchanged. Put plainly: ECM gene expression in chondrocytes (RT-PCR). The format is cell-based. The conditions noted are these: peptide 50 and 100 μg/ml, day 9, mRNA, FIG. 3. The procedure:
Human-derived chondrocytes were treated with the peptide containing the amino acid sequence of SEQ ID NO: 1, and then it was confirmed whether there was an increase in mRNA expression of collagen type II (COL2A1), aggrecan (ACAN), and proteoglycan core protein (PCP), which are ECM components, and GAPDH gene, which is a control.
To this end, human C28/12 chondrocyte cell line was distributed in a 6-well plate at a density of 8.9×10^4 cells/well and cultured in DMEM medium (cat. 11995-065, Gibco) for 24 hours. […] After removing the medium on day 9, cells were harvested and RNA was isolated. After synthesizing cDNA using a cDNA synthesis kit (Intron, Korea), PCR was performed for collagen type II, ACAN, PCP, and GAPDH genes using PCR pre-mix (Intron, Korea).

The next series deals with SOX9 protein. Put plainly: Expression of ECM regulator SOX9 in mesenchymal stem cells (Western blot). In kind it is cell-based, human. To be noted: AD-MSC, peptide 50 and 100 μg/ml, days 3, 7, 14, FIGS. 6A to 6C. Here is the method:
Adipose-derived mesenchymal stem cells were treated with the peptide containing the amino acid sequence of SEQ ID NO: 1, and then it was confirmed whether there was an increase in expression of SOX9 protein, which is an ECM regulator.
At this time, as a positive control (CM), a solution containing dexamethasone (100 nM)+ascorbic acid (50 μM)+proline (40 μM)+TGFβ1 (10 ng/ml)+1X ITS was used. After removing the medium on days 3, 7, and 14, cells were harvested, a cell lysate was prepared, and Western blot was performed using antibodies (Millipore, USA) against the SOX9 and SOX5 proteins.

The test system of a further series is TRAP. To be noted: RAW264.7; peptide 10, 30, 50, 100, 150 μg/ml with RANKL; 4 days; absorbance 405 nm; concentration-dependent; FIG. 10C.
For series [7], the system named is human adipose-derived mesenchymal stem cells (AD-MSCs). The experiment in a line: Differentiation of mesenchymal stem cells into chondrocytes and ECM production, alcian blue staining. In kind it is cell-based. To be noted: peptide 30, 50, 100, 150 μg/ml, day 15, FIG. 5. Here is the method: Adipose-derived mesenchymal stem cells were treated with the peptide containing the amino acid sequence of SEQ ID NO: 1, and then the effect on chondrogenic differentiation of the stem cells and ECM production was confirmed.
After removing the medium on day 15, 60 μl of 3.7% formalin was added to the 96-well plate to be stained and fixed for 1 minute. After removing the 3.7% formalin, 70 μl of an alcian blue staining solution (50 ml of 3% acetic acid+0.5 g of 1% Asian blue 8GX, pH 2.5) was added, and incubation was performed at 37° C. for 24 hours. Thereafter, the staining solution was removed, washing with triple distilled water and drying were performed, and then observation was performed with a microscope.

In the next series the test system is NFATc1 protein. The experiment in a line: NFATc1 protein in RANKL-induced osteoclast differentiation (Western blot). The format is cell-based, mouse. The conditions noted are these: RAW264.7, peptide 50 and 100 μg/ml with RANKL, day 1 of induction, FIG. 11. The procedure:
Mouse RAW264. […] After removing the medium on day 1 of induction, cells were harvested, a cell lysate was prepared, and Western blot was performed using antibodies (Millipore, USA) against NFATc1 protein.

The test system of series [8] is human C28/12 chondrocyte cell line. Put plainly: ECM production in chondrocytes, alcian blue staining. The format is cell-based. The conditions noted are these: peptide 30, 50, 100, 150 μg/ml, day 6, FIG. 2. The procedure: In order to confirm the cartilage regeneration effect of treatment with the peptide of the present invention containing the amino acid sequence of SEQ ID NO: 1, human-derived chondrocytes were treated with the peptide of SEQ ID NO: 1, and then it was confirmed whether there was an increase in formation of glycosaminoglycan, which is an ECM component.
After removing the medium on day 6, 60 μl of 3.7% formalin was added to the 96-well plate to be stained and fixed for 1 minute. After removing the 3.7% formalin, 70 μl of an alcian blue staining solution (50 ml of 3% acetic acid+0.5 g of 1% Asian blue 8GX, pH 2.5) was added, and incubation was performed at 37° C. for 24 hours. Thereafter, the staining solution was removed, washing with triple distilled water and drying were performed, and then observation was performed with a microscope.

Consider “ACDWGLWWLC (peptide having cartilage regeneration activity) [SEQ ID NO: 1]”, for which the “differentiation into osteoclasts induced by RANKL” value in the series with mouse RAW264.7 cell line [1] is “inhibited the differentiation into osteoclasts”. For the same sequence, in the series with human AD-MSC cells, the “expression of ACAN gene” value was “promoted the expression”, the “expression of COL 11A gene” value is “promoted the expression”, the “expression of COMP gene” value is reported as “promoted the expression” and the “expression of PCP gene” value is recorded as “promoted the expression”. In the series with COX2 protein, the “increase in inflammatory proteins (COX2 protein)” value is “inhibited the increase in inflammatory proteins”. Moreover, the “formation of actin rings” value in series [2] was “inhibited the formation of actin rings”. For the same sequence, the “toxicity to mouse macrophages” value in the series on mouse RAW264.7 cell line [3] (CCK-8, FIG. 10B) is recorded as “not toxic”. In addition, the “CCK-8 absorbance at 450 nm (cell proliferation) versus untreated” value with mouse RAW264.7 cell line [3] (FIG. 10B) is listed as “the absorbance was higher”. For the same sequence, in series [4], the “expression of inflammatory cytokine genes (TNFα, IL-1β, Cox2 mRNA)” value is “inhibited the expression of inflammatory cytokine genes”. For the same sequence, the “formation of glycosaminoglycan (ECM component) in three-dimensional culture of chondrocytes” value in [5] is reported as “promoted the formation of glycosaminoglycan”. Also, in [6], the “expression of ACAN (aggrecan) gene” value was “promoted the expression”, the “expression of PCP (proteoglycan core protein) gene” value is recorded as “promoted the expression” and the “expression of collagen type II (COL2A1) gene” value was “promoted the expression”. Besides, the “production of SOX9 protein (ECM regulator)” value with SOX9 protein is reported as “increased production of SOX9 protein”. Further, in the series with TRAP, the “activity of TRAP (marker of osteoclasts)” value is on record as “inhibited the activity of TRAP”. Also, in series [7], the “chondrogenic differentiation of adipose-derived mesenchymal stem cells” value is listed as “promoted the chondrogenic differentiation” and the “production of glycosaminoglycan (ECM component) in adipose-derived mesenchymal stem cells” value is recorded as “promoted”. The “production of NFATc1 protein” value with NFATc1 protein was “inhibited the production of NFATc1 protein”. Also, the “ECM production (glycosaminoglycan formation) in chondrocytes” value in series [8] was “promoted ECM production”.
